According to patent US8574608B2, “Bactericidal silver surfactant delivery into coating and polymer compositions” (Eastern Michigan Universtity, priority 2007, dated 2013):
Where “and” joins values, the source holds several entries; their conditions need not be identical. Identical values can stand only once. Like-named read-outs stand apart in the source and are kept apart here.

How the values were obtained:
E. coli [1] = assay: E. coli challenged by silver surfactants in commercial acrylic paint; assay type: cell-based, Escherichia coli; settings: 24 h contact time; for surviving bacteria (growth): commercial solvent borne acrylate paint coating; as to surviving bacteria (growth): key: A minus sign (−) denotes no growth; a plus sign (+) denotes confluent growth; a capital P (P) denotes particle growth
E. coli [2] = assay: E. coli challenged by silver surfactants in laboratory acrylic paint; assay type: cell-based, Escherichia coli; settings: 24 h contact time; for surviving bacteria (growth): laboratory solvent borne acrylate paint coating; as to surviving bacteria (growth): key: A minus sign (−) denotes no growth; a plus sign (+) denotes confluent growth; a capital P (P) denotes particle growth
E. coli [3] = assay: E. coli challenged by silver surfactants in commercial alkyd paint; assay type: cell-based, Escherichia coli; settings: alkyd resin paint coating, 24 h contact time; also: key: A minus sign (−) denotes no growth; a plus sign (+) denotes confluent growth; a capital P (P) denotes particle growth
S. aureus [4] = assay: S. aureus challenged by silver surfactants in laboratory acrylic clearcoat; assay type: cell-based, Staphylococcus aureus; settings: 24 h contact time; for surviving bacteria (growth): laboratory solvent borne acrylate clearcoat; as to surviving bacteria (growth): key: A minus sign (−) denotes no growth; a plus sign (+) denotes confluent growth; a capital P (P) denotes particle growth
E. coli [5] = assay: E. coli challenged by silver surfactants in commercial 2K epoxy paint; assay type: cell-based, Escherichia coli; settings: 24 h contact time; for surviving bacteria (growth): commercial 2K epoxy paint coating
Enterococcus fecalis = assay: Growth on agar plates containing sodium surfactant; assay type: cell-based; also: test concentration or dose not given here
Streptococcus bovis = assay: Growth on agar plates containing sodium surfactant; assay type: cell-based
Staphylococcus aureus = assay: Growth on agar plates containing sodium surfactant; assay type: cell-based; also: test concentration or dose not given here
[6] = system: Staphylococcus epidermidis; assay: Growth on agar plates containing sodium surfactant; assay type: cell-based
Streptococcus agalactiae = assay: Growth on agar plates containing sodium surfactant; assay type: cell-based; also: test concentration or dose not given here
Micrococcus luteus = assay: Growth on agar plates containing sodium surfactant; assay type: cell-based
Streptococcus viridans = assay: Growth on agar plates containing sodium surfactant; assay type: cell-based
Bacillus subtilis = assay: Growth on agar plates containing sodium surfactant; assay type: cell-based; also: test concentration or dose not given here
Streptococcus pyogenes = assay: Growth on agar plates containing sodium surfactant; assay type: cell-based
Gram-negative bacteria = assay type: cell-based
Gram-positive bacteria = assay type: cell-based
S. aureus [7] = assay type: cell-based, Staphylococcus aureus
Candida tropicalis = assay type: cell-based
Streptococcus pneumoniae = assay type: cell-based
B. subtilis = assay type: cell-based, Bacillus subtilis
[8] = agar plates with sodium surfactant, strain EM19, first line, replicates 1-2 or 1-3
[9] = agar plates with sodium surfactant, strain EM19, second line, replicates 1-2 or 1-3
[10] = agar plates with sodium surfactant, strain EM12, replicates 1-2 or 1-3
[11] = agar plates with sodium surfactant, strain ATCC6538, replicates 1-2 or 1-3
[12] = agar plates with sodium surfactant, strain EM24/ATCC25923, replicates 1-2 or 1-3
[13] = agar plates with sodium surfactant, strain EM3/ATCC12228, replicates 1-2 or 1-3
[14] = agar plates with sodium surfactant, strain EM13, replicates 1-2 or 1-3
[15] = agar plates with sodium surfactant, strain EM17, replicates 1-2 or 1-3
[16] = agar plates with sodium surfactant, strain EM8, replicates 1-2 or 1-3
[17] = agar plates with sodium surfactant, strain ATCC33, replicates 1-2 or 1-3
[18] = agar plates with sodium surfactant, strain EM27, replicates 1-2 or 1-3
[19] = agar plates with sodium surfactant, strain EM14, replicates 1-2 or 1-3

silver linearalkanebenzene sulfonate [AgLABS]
silver level partially effective (E. coli [1]; commercial acrylic paint): 0.03 % Ag w/w
surviving bacteria (growth) (E. coli [1]; 0.0012 weight % Ag in coating): +
surviving bacteria (growth) (E. coli [1]; 0.003 weight % Ag in coating): +
surviving bacteria (growth) (E. coli [1]; 0.006 weight % Ag in coating): +
surviving bacteria (growth) (E. coli [1]; 0.012 weight % Ag in coating): +
surviving bacteria (growth) (E. coli [1]; 0.06 weight % Ag in coating): −
surviving bacteria (growth) (E. coli [1]; 0.12 weight % Ag in coating): −
silver level with partial inhibition (only partial growth) (E. coli [2]; laboratory acrylic paint): 0.03%
surviving bacteria (growth) (E. coli [2]; 0.0012 weight % Ag in coating): +
surviving bacteria (growth) (E. coli [2]; 0.003 weight % Ag in coating): +
surviving bacteria (growth) (E. coli [2]; 0.006 weight % Ag in coating): +
surviving bacteria (growth) (E. coli [2]; 0.012 weight % Ag in coating): +
surviving bacteria (growth) (E. coli [2]; 0.06 weight % Ag in coating): −
surviving bacteria (growth) (E. coli [2]; 0.12 weight % Ag in coating): −
surviving bacteria (growth) (E. coli [3]; 0.0012 weight % Ag in coating): +
surviving bacteria (growth) (E. coli [3]; 0.003 weight % Ag in coating): +
surviving bacteria (growth) (E. coli [3]; 0.006 weight % Ag in coating): +
surviving bacteria (growth) (E. coli [3]; 0.012 weight % Ag in coating): +
surviving bacteria (growth) (E. coli [3]; 0.03 weight % Ag in coating): −
surviving bacteria (growth) (E. coli [3]; 0.06 weight % Ag in coating): −
surviving bacteria (growth) (E. coli [3]; 0.12 weight % Ag in coating): −
silver level at which partial growth is observed (S. aureus [4]; laboratory acrylic clearcoat): 0.012 % Ag w/w and 0.006 % Ag w/w
surviving bacteria (growth) (S. aureus [4]; 0.0012 weight % Ag in coating): −
surviving bacteria (growth) (S. aureus [4]; 0.003 weight % Ag in coating): −
surviving bacteria (growth) (S. aureus [4]; 0.03 weight % Ag in coating): −
surviving bacteria (growth) (S. aureus [4]; 0.06 weight % Ag in coating): −
surviving bacteria (growth) (S. aureus [4]; 0.12 weight % Ag in coating): −
surviving bacteria (growth) (E. coli [5]; 0.0012 weight % Ag in coating): +
surviving bacteria (growth) (E. coli [5]; 0.003 weight % Ag in coating): +
surviving bacteria (growth) (E. coli [5]; 0.006 weight % Ag in coating): +
surviving bacteria (growth) (E. coli [5]; 0.012 weight % Ag in coating): +
surviving bacteria (growth) (E. coli [5]; 0.03 weight % Ag in coating): −
surviving bacteria (growth) (E. coli [5]; 0.06 weight % Ag in coating): −
surviving bacteria (growth) (E. coli [5]; 0.12 weight % Ag in coating): −
silver level giving complete inhibition of growth (E. coli [5]; commercial 2K epoxy paint): 0.03 % w/w

CCCCCCCCCCCCCOC(=O)CC(C(=O)OCCCCCCCCCCCCC)S(=O)(=O)[O-].[Na+] (centres unmarked) [Compound S6]
Survival: No Growth/Full Growth (Enterococcus fecalis): +
Survival: No Growth/Full Growth (Streptococcus bovis): −
Survival: No Growth/Full Growth (Staphylococcus aureus): +
Survival: No Growth/Full Growth [6]: +
Survival: No Growth/Full Growth (Streptococcus agalactiae): − and +
Survival: No Growth/Full Growth (Micrococcus luteus): + and −
Survival: No Growth/Full Growth (Streptococcus viridans): +
Survival: No Growth/Full Growth (Bacillus subtilis): − and +
Survival: No Growth/Full Growth (Streptococcus pyogenes): −

O=C(CC(C(=O)OC1CCCCC1)S(=O)(=O)[O-])OC1CCCCC1.[Na+] (centres unmarked) [Compound S5]
Survival: No Growth/Full Growth (Enterococcus fecalis; [8]): +
Survival: No Growth/Full Growth (Enterococcus fecalis; [9]): +
Survival: No Growth/Full Growth (Streptococcus bovis; [10]): −
Survival: No Growth/Full Growth (Staphylococcus aureus; [11]): +
Survival: No Growth/Full Growth (Staphylococcus aureus; [12]): +
Survival: No Growth/Full Growth [6, 13]: +
Survival: No Growth/Full Growth (Streptococcus agalactiae; [14]): − and +
Survival: No Growth/Full Growth (Micrococcus luteus; [15]): − (2×) and +
Survival: No Growth/Full Growth (Streptococcus viridans; [16]): +
Survival: No Growth/Full Growth (Bacillus subtilis; [17]): − and +
Survival: No Growth/Full Growth (Bacillus subtilis; [18]): +
Survival: No Growth/Full Growth (Streptococcus pyogenes; [19]): −

CCCCC(CC)COC(=O)CC(C(=O)OCC(CC)CCCC)S(=O)(=O)[O-].[Na+] (centres unmarked) [sodium bis[2-ethylhexyl]sulfosuccinate]
Survival: No Growth/Full Growth (Enterococcus fecalis): −
Survival: No Growth/Full Growth (Streptococcus bovis): −
response of Gram-negative bacteria (Gram-negative bacteria): resistant
effect on all Gram-positive bacteria tested (Gram-positive bacteria): killed
Survival: No Growth/Full Growth (Staphylococcus aureus): −
Survival: No Growth/Full Growth [6]: −
killing of S. aureus (S. aureus [7]): killed all
Survival: No Growth/Full Growth (Streptococcus agalactiae): −
Survival: No Growth/Full Growth (Candida tropicalis): −
effect on the yeast Candida tropicalis (Candida tropicalis): killed
Survival: No Growth/Full Growth (Streptococcus pneumoniae): −
killing of B. subtilis (B. subtilis): killed all
Survival: No Growth/Full Growth (Micrococcus luteus): −
Survival: No Growth/Full Growth (Streptococcus viridans): −
Survival: No Growth/Full Growth (Bacillus subtilis): −
Survival: No Growth/Full Growth (Streptococcus pyogenes): −

CCCCCCCCCCCCOS(=O)(=O)[O-].[Ag+] [AgDS, Silver dodecylsufate]
silver level effective at preventing any growth (E. coli [1]; commercial acrylic paint): 0.03 % w/w
surviving bacteria (growth) (E. coli [1]; 0.0012 weight % Ag in coating): +
surviving bacteria (growth) (E. coli [1]; 0.003 weight % Ag in coating): +
surviving bacteria (growth) (E. coli [1]; 0.006 weight % Ag in coating): +
surviving bacteria (growth) (E. coli [1]; 0.012 weight % Ag in coating): +
surviving bacteria (growth) (E. coli [1]; 0.03 weight % Ag in coating): −
surviving bacteria (growth) (E. coli [1]; 0.06 weight % Ag in coating): −
surviving bacteria (growth) (E. coli [1]; 0.12 weight % Ag in coating): −
silver level effective at preventing any growth (E. coli [2]; laboratory acrylic paint): 0.03 % w/w
silver level with partial inhibition (only partial growth) (E. coli [2]; laboratory acrylic paint): 0.012%
surviving bacteria (growth) (E. coli [2]; 0.0012 weight % Ag in coating): +
surviving bacteria (growth) (E. coli [2]; 0.003 weight % Ag in coating): +
surviving bacteria (growth) (E. coli [2]; 0.006 weight % Ag in coating): +
surviving bacteria (growth) (E. coli [2]; 0.03 weight % Ag in coating): −
surviving bacteria (growth) (E. coli [2]; 0.06 weight % Ag in coating): −
surviving bacteria (growth) (E. coli [2]; 0.12 weight % Ag in coating): −
surviving bacteria (growth) (E. coli [3]; 0.0012 weight % Ag in coating): +
surviving bacteria (growth) (E. coli [3]; 0.003 weight % Ag in coating): +
surviving bacteria (growth) (E. coli [3]; 0.006 weight % Ag in coating): +
surviving bacteria (growth) (E. coli [3]; 0.012 weight % Ag in coating): +
surviving bacteria (growth) (E. coli [3]; 0.03 weight % Ag in coating): −
surviving bacteria (growth) (E. coli [3]; 0.06 weight % Ag in coating): −
surviving bacteria (growth) (E. coli [3]; 0.12 weight % Ag in coating): −
surviving bacteria (growth) (S. aureus [4]; 0.0012 weight % Ag in coating): −
surviving bacteria (growth) (S. aureus [4]; 0.003 weight % Ag in coating): −
surviving bacteria (growth) (S. aureus [4]; 0.006 weight % Ag in coating): −
surviving bacteria (growth) (S. aureus [4]; 0.012 weight % Ag in coating): −
surviving bacteria (growth) (S. aureus [4]; 0.03 weight % Ag in coating): −
surviving bacteria (growth) (S. aureus [4]; 0.06 weight % Ag in coating): −
surviving bacteria (growth) (S. aureus [4]; 0.12 weight % Ag in coating): −
surviving bacteria (growth) (E. coli [5]; 0.0012 weight % Ag in coating): +
surviving bacteria (growth) (E. coli [5]; 0.003 weight % Ag in coating): +
surviving bacteria (growth) (E. coli [5]; 0.006 weight % Ag in coating): +
surviving bacteria (growth) (E. coli [5]; 0.03 weight % Ag in coating): −
surviving bacteria (growth) (E. coli [5]; 0.06 weight % Ag in coating): −
surviving bacteria (growth) (E. coli [5]; 0.12 weight % Ag in coating): −
silver level giving complete inhibition of growth (E. coli [5]; commercial 2K epoxy paint): 0.03 % w/w
silver level partially effective (E. coli [5]; commercial 2K epoxy paint): 0.012 % w/w

CCCCC(CC)COC(=O)CC(C(=O)OCC(CC)CCCC)S(=O)(=O)[O-].[Na+] (centres unmarked) [Compound S1]
Survival: No Growth/Full Growth (Enterococcus fecalis; [8]): −
Survival: No Growth/Full Growth (Enterococcus fecalis; [9]): −
Survival: No Growth/Full Growth (Streptococcus bovis; [10]): −
Survival: No Growth/Full Growth (Staphylococcus aureus; [11]): −
Survival: No Growth/Full Growth (Staphylococcus aureus; [12]): −
Survival: No Growth/Full Growth [6, 13]: −
Survival: No Growth/Full Growth (Streptococcus agalactiae; [14]): −
Survival: No Growth/Full Growth (Micrococcus luteus; [15]): −
Survival: No Growth/Full Growth (Streptococcus viridans; [16]): −
Survival: No Growth/Full Growth (Bacillus subtilis; [17]): −
Survival: No Growth/Full Growth (Bacillus subtilis; [18]): −
Survival: No Growth/Full Growth (Streptococcus pyogenes; [19]): −

CC(C)CC(C)OC(=O)CC(C(=O)OC(C)CC(C)C)S(=O)(=O)[O-].[Na+] (centres unmarked) [Compound S4]
Survival: No Growth/Full Growth (Enterococcus fecalis; [8]): −
Survival: No Growth/Full Growth (Enterococcus fecalis; [9]): +
Survival: No Growth/Full Growth (Streptococcus bovis; [10]): −
Survival: No Growth/Full Growth (Staphylococcus aureus; [11]): −
Survival: No Growth/Full Growth (Staphylococcus aureus; [12]): −
Survival: No Growth/Full Growth [6, 13]: −
Survival: No Growth/Full Growth (Streptococcus agalactiae; [14]): −
Survival: No Growth/Full Growth (Micrococcus luteus; [15]): −
Survival: No Growth/Full Growth (Streptococcus viridans; [16]): +
Survival: No Growth/Full Growth (Bacillus subtilis; [17]): −
Survival: No Growth/Full Growth (Bacillus subtilis; [18]): −
Survival: No Growth/Full Growth (Streptococcus pyogenes; [19]): −

CCCCC(CC)COP(=O)([O-])OCCC(CC)CCC.[Na+] (centres unmarked) [Compound S2]
Survival: No Growth/Full Growth (Enterococcus fecalis; [8]): −
Survival: No Growth/Full Growth (Enterococcus fecalis; [9]): −
Survival: No Growth/Full Growth (Streptococcus bovis; [10]): −
Survival: No Growth/Full Growth (Staphylococcus aureus; [11]): −
Survival: No Growth/Full Growth (Staphylococcus aureus; [12]): −
Survival: No Growth/Full Growth [6, 13]: −
Survival: No Growth/Full Growth (Streptococcus agalactiae; [14]): −
Survival: No Growth/Full Growth (Micrococcus luteus; [15]): −
Survival: No Growth/Full Growth (Streptococcus viridans; [16]): −
Survival: No Growth/Full Growth (Bacillus subtilis; [17]): −
Survival: No Growth/Full Growth (Bacillus subtilis; [18]): −
Survival: No Growth/Full Growth (Streptococcus pyogenes; [19]): −
